Several values for one entry are separate records, joined by “and”; a condition that tells them apart may be missing. Identical values can stand only once. Numbers after ± are expanded uncertainties.
How the values were obtained:
[1] = Molar enthalpy of transition or fusion; conditions: DSC
[2] = DTA; for Triple point temperature: Crystal 2

| Structure (SMILES) | Molar enthalpy of transition or fusion ([1]; Crystal) | Normal melting temperature ([2]; Crystal) | Molar enthalpy of transition or fusion ([1]; Crystal 2) | Normal melting temperature ([2]; Crystal 1) | Triple point temperature [2] |
| --- | --- | --- | --- | --- | --- |
| OCCCCCCCCCCO [1,10-decanediol] | 10.8 ± 0.239 kcal/mol | 72.7 ± 0.7 °C | – | – | – |
| OCCCCCCCCCCCCCO [1,13-tridecanediol] | – | – | 13.1 ± 0.287 kcal/mol | 77.2 ± 0.7 °C | 339.3 ± 0.7 K |
| OCCCCCCCCCCCO [1,11-undecanediol] | 11 ± 0.239 kcal/mol | 61.0 ± 0.6 °C | – | – | – |
| OCCCCCCCO [1,7-heptanediol] | 6.29 ± 0.215 kcal/mol | 17.4 ± 4 °C | – | – | – |
| OCCCCCCCCCCCCO [1,12-dihydroxydodecane] | 13 ± 0.263 kcal/mol | 79.8 ± 0.7 °C | – | – | – |
| OCCCCCCO [1,6-hexanediol] | 6.31 ± 0.143 kcal/mol | 41.6 ± 0.6 °C | – | – | – |
| OCCCCCCCCO [1,8-octanediol] | 8.68 ± 0.191 kcal/mol | 58.5 ± 0.6 °C | – | – | – |
| OCCCCCCCCCO [1,9-nonanediol] | 8.77 ± 0.191 kcal/mol | 45.6 ± 0.6 °C | – | – | – |
| OCCCCCCCCCCCCCCCCO [1,16-dihydroxyhexadecane] | – | – | 17.4 ± 0.359 kcal/mol | 93 ± 0.7 °C | 364.1 ± 0.7 K |
| OCCCCCCCCCCCCCCO [1,14-tetradecanediol] | 15.2 ± 0.311 kcal/mol | 86.1 ± 0.7 °C | – | – | – |
| OCCCCCCCCCCCCCCCO [1,15-pentadecanediol] | – | – | 15.6 kcal/mol and 9.15 kcal/mol | 88.1 ± 0.7 °C | 349 ± 0.7 K |
